# Reference: BindingDB's records for doi:10.7270/Q2MP51PC (Pcmd, 2008)
# Target: T1, Complement C1s subcomponent (Homo sapiens, UniProt P09871)
# T1 sequence (P09871 whole entry): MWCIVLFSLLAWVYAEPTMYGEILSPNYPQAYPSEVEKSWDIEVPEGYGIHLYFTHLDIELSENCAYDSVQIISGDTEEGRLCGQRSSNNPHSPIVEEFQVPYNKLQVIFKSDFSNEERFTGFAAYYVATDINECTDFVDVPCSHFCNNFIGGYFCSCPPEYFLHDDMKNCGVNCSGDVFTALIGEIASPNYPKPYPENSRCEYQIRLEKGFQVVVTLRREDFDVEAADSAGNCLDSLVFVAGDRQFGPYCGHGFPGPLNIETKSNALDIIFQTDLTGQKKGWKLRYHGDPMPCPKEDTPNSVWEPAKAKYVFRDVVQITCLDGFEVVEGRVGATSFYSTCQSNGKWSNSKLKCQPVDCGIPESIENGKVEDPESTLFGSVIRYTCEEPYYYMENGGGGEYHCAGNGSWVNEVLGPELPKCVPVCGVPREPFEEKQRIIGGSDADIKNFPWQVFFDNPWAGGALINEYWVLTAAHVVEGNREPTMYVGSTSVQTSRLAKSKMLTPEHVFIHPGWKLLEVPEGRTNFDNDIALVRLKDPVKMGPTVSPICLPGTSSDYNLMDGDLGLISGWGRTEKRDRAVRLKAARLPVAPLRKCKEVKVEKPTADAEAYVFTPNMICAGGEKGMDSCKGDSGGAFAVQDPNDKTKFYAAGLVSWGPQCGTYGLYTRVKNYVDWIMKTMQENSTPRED
# Test: concentration-response of complement C1s inhibitors – biochemical, dose response (AID 787)
row,IC50 [µM],SMILES
1,> 50,"CCOC(=O)c1ccc(CSc2nncn2N)o1 [5-[[(4-amino-1,2,4-triazol-3-yl)thio]methyl]-2-furancarboxylic acid ethyl ester]"
2,> 50,N#Cc1cnn(CC2CCCCC2)c1N [5-amino-1-(cyclohexylmethyl)-4-pyrazolecarbonitrile]
3,> 50,"Cc1cc(NC(=O)c2cc3nc(C4CC4)cc(C(F)(F)F)n3n2)no1 [5-cyclopropyl-N-(5-methyl-1,2-oxazol-3-yl)-7-(trifluoromethyl)pyrazolo[1,5-a]pyrimidine-2-carboxamide]"
4,> 50,Cc1ccc(CCNC(=O)C2CCC(=O)N2Cc2cccnc2)cc1 (stereo not drawn) [5-keto-N-[2-(p-tolyl)ethyl]-1-(3-pyridylmethyl)pyrrolidine-2-carboxamide]
5,> 50,"CCOc1cc2[nH]c(=S)n(CC3CCCO3)c(=O)c2cc1OCC (stereo not drawn) [6,7-diethoxy-3-(2-oxolanylmethyl)-2-sulfanylidene-1H-quinazolin-4-one]"
6,> 50,"O=C(Cn1c(=O)oc2cc(S(=O)(=O)N3CCc4ccccc43)ccc21)N1CCCCC1 [6-(2,3-dihydroindol-1-ylsulfonyl)-3-(2-oxidanylidene-2-piperidin-1-yl-ethyl)-1,3-benzoxazol-2-one]"
7,> 50,"CC(=O)c1cc2c(cc1NC(=O)C1CC=CCC1C(=O)O)OCO2 (stereo not drawn) [6-[(6-acetyl-1,3-benzodioxol-5-yl)carbamoyl]cyclohex-3-ene-1-carboxylic acid]"
8,> 50,"Cc1coc2c(C)c3oc(=O)c4c(c3cc12)CCCC4 [7,10-dimethyl-1,2,3,4-tetrahydro-[1]benzofuro[6,5-c]isochromen-5-one]"
9,> 50,"CCOc1ccc(C2CC(c3cccc(Cl)c3)n3nc(N)nc3N2)cc1 (stereo not drawn) [7-(3-chlorophenyl)-5-(4-ethoxyphenyl)-1,5,6,7-tetrahydro-[1,2,4]triazolo[1,5-a]pyrimidin-2-amine]"
10,> 50,"COc1cc(C(Nc2ccccn2)c2ccc3ccc(C)nc3c2O)cc(OC)c1O (stereo not drawn) [7-[(3,5-dimethoxy-4-oxidanyl-phenyl)-(pyridin-2-ylamino)methyl]-2-methyl-quinolin-8-ol]"
11,> 50,"Cc1nnc(SC(=O)N2c3ccccc3Sc3ccccc32)s1 [10-phenothiazinecarbothioic acid S-(5-methyl-1,3,4-thiadiazol-2-yl) ester]"
12,> 50,"COc1ccc(Nc2cc(C)nc3nc(C)nn23)c(OC)c1 [(2,4-dimethoxyphenyl)-(2,5-dimethyl-[1,2,4]triazolo[1,5-a]pyrimidin-7-yl)amine]"
13,> 50,COc1ccccc1Nc1nc(-c2cccs2)cs1 [(2-methoxyphenyl)-[4-(2-thienyl)thiazol-2-yl]amine]
14,> 50,COc1ccc(CC(=O)OCc2cc3ccccc3[nH]c2=O)cc1 [(2-oxidanylidene-1H-quinolin-3-yl)methyl 2-(4-methoxyphenyl)ethanoate]
15,2.37,"COc1ccc(C(=O)n2nc(-c3ccco3)nc2SC)cc1OC [(3,4-dimethoxyphenyl)-[3-(2-furanyl)-5-(methylthio)-1,2,4-triazol-1-yl]methanone]"
16,> 50,"Cc1noc(C)c1COC(=O)c1ccccc1NC(=O)Cc1ccccc1 [(3,5-dimethyl-1,2-oxazol-4-yl)methyl 2-(2-phenylethanoylamino)benzoate]"
17,> 50,COc1ccc(C(=O)n2ccc(C)n2)cc1Br [(3-bromanyl-4-methoxy-phenyl)-(3-methylpyrazol-1-yl)methanone]
18,> 50,Oc1cccc(C(=S)N2CCN(Cc3ccccc3)CC2)c1 [(3-hydroxyphenyl)-[4-(phenylmethyl)-1-piperazinyl]methanethione]
19,> 50,CCCS(=O)(=O)N1CCC(C(=O)N2CCN(Cc3ccccc3)CC2)CC1 [(4-benzylpiperazin-1-yl)-(1-propylsulfonylpiperidin-4-yl)methanone]
20,> 50,"CCN1CCN(C=Nc2nc3c(s2)CCCC3)CC1 [(4-ethylpiperazino)methylene-(4,5,6,7-tetrahydro-1,3-benzothiazol-2-yl)amine]"
21,> 50,"COc1ccc(C(=O)OCn2nnc3ccccc3c2=O)cc1OC [(4-oxidanylidene-1,2,3-benzotriazin-3-yl)methyl 3,4-dimethoxybenzoate]"

row,IC50 [µM],SMILES
1,> 50,"Cc1cccc(COc2ccc(C(=O)C3C(=O)C(=O)N(CCN(C)C)C3c3ccncc3)cc2)c1 (stereo not drawn) [(4E)-1-[2-(dimethylamino)ethyl]-4-[[4-[(3-methylphenyl)methoxy]phenyl]-oxidanyl-methylidene]-5-pyridin-4-yl-pyrrolidine-2,3-dione]"
2,12.1,"Nc1nc(C(=O)N2CCOCC2)nn1C(=O)c1ccc(Cl)cc1 [(5-azanyl-3-morpholin-4-ylcarbonyl-1,2,4-triazol-1-yl)-(4-chlorophenyl)methanone]"
3,> 50,"CCOC(=O)N1CCC2=C(C#N)C(=N)C(C#N)(C#N)[C@H](c3ccccc3OCC)[C@H]2C1 [(8R,8aR)-6-amino-5,7,7-tricyano-8-(2-ethoxyphenyl)-1,3,8,8a-tetrahydroisoquinoline-2-carboxylic acid ethyl ester]"
4,> 50,"CNC=C1C(=O)C(C)(C)Oc2ccc3ccc(=O)oc3c21 [(10Z)-8,8-dimethyl-10-(methylaminomethylene)pyrano[2,3-f]chromene-2,9-quinone]"
5,17.1,COC(=O)c1ccc(OC(=O)c2ccco2)cc1 [Furan-2-carboxylic acid 4-methoxycarbonyl-phenyl ester]
6,> 50,CCC(=O)Oc1ccc(C(CC)C(CC)c2ccc(OC(=O)CC)cc2)cc1 (stereo not drawn) [HEXESTROL DIPROPIONATE]
7,> 50,O=C1CS/C(=N\c2ccc(O)cc2)N1c1ccc(O)cc1 [MLS000027731]
8,> 50,COc1cc(NC(=O)c2cccs2)c(OC)cc1NC(=O)CCn1nnc2ccccc21 [MLS000027885]
9,11.3,COc1ccc(S(=O)(=O)n2nc(OC(=O)c3ccco3)cc2N)cc1 [MLS000033887]
10,> 50,O=c1cc(-c2ccccc2)[nH]c2nc(-c3ccccc3)nn12 [MLS000037061]
11,> 50,O=C(NC1CCS(=O)(=O)C1)c1cccc(S(=O)(=O)N2CCCCC2)c1 (stereo not drawn) [MLS000049608]
12,> 50,COc1ccc(NC(=O)C2CCC(=O)N2S(=O)(=O)c2ccc(C)cc2)c(OC)c1 (stereo not drawn) [MLS000050140]
13,> 50,Cc1csc(NC(=O)c2cccc(S(=O)(=O)N3CCCCC3)c2)n1 [MLS000058185]
14,> 50,COc1ccc(NC(=O)c2cccs2)cc1OC [MLS000058874]
15,> 50,O=C(Nc1ccc(Cl)cc1)c1ccc2c(c1)OCO2 [MLS000062068]
16,> 50,O=C(NC1CCCC1)c1cccc(S(=O)(=O)N2CCCCC2)c1 [MLS000065413]
17,> 50,O=C(NCc1ccco1)c1cccc(S(=O)(=O)N2CCCCC2)c1 [MLS000065416]
18,14.9,O=C(c1csc2ccccc12)n1cccn1 [MLS000065687]
19,> 50,Cc1ccc(NS(=O)(=O)c2cc(C(=O)N3CCOCC3)ccc2C)cc1C [MLS000066131]
20,> 50,CCCCC(=O)Nc1ccc(NC(=O)c2cccnc2)cn1 [MLS000068397]
21,> 50,O=C(c1ccco1)N1CCN(S(=O)(=O)c2ccc(S(=O)(=O)NC3CCCCC3)cc2)CC1 [MLS000068710]

row,IC50 [µM],SMILES
1,> 50,O=C(N1CCOCC1)C12CCC3CC(CC(C3)C1)C2 [MLS000071057]
2,> 50,O=C(Nc1ccc2oc(=O)ccc2c1)c1cccnc1 [MLS000075075]
3,> 50,COc1ccc(Cl)cc1NC(=O)CCN1CCN(c2ccccc2C)CC1 [MLS000075926]
4,> 50,O=C(Nc1cc(Cl)ccc1N1CCOCC1)c1cnccn1 [MLS000076142]
5,> 50,COc1cccc(NC(=O)CCP(C)(=O)O)c1 [MLS000079835]
6,> 50,CCC(=O)Nc1ccc(C(=O)Nc2ccc3c(c2)OCO3)cc1 [MLS000085289]
7,> 50,CC1(C)COCN1S(=O)(=O)c1ccc(C(=O)Nc2nnc(-c3ccc(Cl)s3)o2)cc1 [MLS000086346]
8,14,O=C(NCCc1ccccc1)c1noc2c1CCc1ccccc1-2 [MLS000087424]
9,> 50,CCCN(c1nc(C)cc(OC)n1)S(=O)(=O)c1ccccc1 [MLS000087928]
10,> 50,COc1ccc(S(=O)(=O)N2CCOCC2)cc1C(=O)Nc1nc2ccccc2s1 [MLS000088961]
11,> 50,Cc1cc(=O)[nH]c(SCC(=O)c2ccc(C(C)C)cc2)n1 [MLS000089861]
12,34.7,CCC(=O)Nc1cccc(-c2nc3ccccc3c(=O)o2)c1 [MLS000090237]
13,> 50,CCc1ccccc1N(C(=O)c1cccs1)C1C=CS(=O)(=O)C1 (stereo not drawn) [MLS000093437]
14,> 50,CCCCC(=O)Nc1ccc(NC(=O)c2ccc3c(c2)OCO3)cc1OC [MLS000097195]
15,10.1,CCc1cc(=O)oc2cc(C)cc(OC(=O)c3ccco3)c12 [MLS000099547]
16,> 50,COc1cc(C)nc(NS(=O)(=O)c2ccccc2)n1 [MLS000100375]
17,> 50,CC(=O)Nc1ccc(NC(C)=O)s1 [MLS000105054]
18,> 50,O=C1CCCC(=O)C1=CNCCc1ccccc1 [MLS000108318]
19,> 50,Cc1csc(NC(=O)c2ccco2)n1 [MLS000108918]
20,> 50,COc1ccccc1CNC(=O)C1COc2ccccc2O1 (stereo not drawn) [MLS000110123]

row,SMILES,IC50 [µM]
1,CC1CNC(=Nc2cccc3ccccc23)S1 (stereo not drawn) [(5-methyl-2-thiazolin-2-yl)-(1-naphthyl)amine],> 50
